From publication PMC12221113, “Deferasirox Derivatives as Inhibitors of Kallikrein‐Related Peptidases Associated to Neurodegenerative Diseases” (Chemmedchem, 2025)
Where two headings read alike, the source gives them in different places.

Key:
KLK8 = target: T1, KLK8 (Homo sapiens, UniProt O60259); experiment: KLK8 fluorogenic enzyme inhibition assay (Boc-VPR-AMC)
T1 sequence (O60259 33-260): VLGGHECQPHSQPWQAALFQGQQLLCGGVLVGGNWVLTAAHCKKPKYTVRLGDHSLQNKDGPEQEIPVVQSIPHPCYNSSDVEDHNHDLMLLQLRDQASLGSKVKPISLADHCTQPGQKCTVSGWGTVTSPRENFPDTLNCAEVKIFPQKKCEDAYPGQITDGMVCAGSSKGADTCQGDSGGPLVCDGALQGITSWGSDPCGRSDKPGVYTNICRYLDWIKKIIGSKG
Procedure: (§1) All enzyme stocks were stored at −20 °C and purchased from R&D Systems as proenzymes (KLK6, KLK8, KLK13) or as mature and active forms (KLK5). Activation of KLK6, KLK8, and KLK13 is performed in optimized buffers. The activation reaction is initiated by Lysyl‐Endopeptidase at 2.5 mU mL^−1 (Wako Bioproducts). The activation reaction is stopped by diluting the enzyme to 0.5 μg mL^−1 in assay buffer (50 mM Tris, 1 M Citrate, 0.05% w/v Brij‐35, pH 8) to obtain an active enzyme stock. KLK1 was purchased from R & D Systems as pro‐KLK1. Activation of KLK1 is performed in 50 mM Tris‐HCl, 10 mM CaCl2, 150 mM NaCl, 0.05% Brij‐35, pH 7.5. The activation reaction is initiated by bacterial thermolysin at 0.4 μg mL^−1 (Sigma‐Aldrich) and stopped by addition of 100 mM EDTA (Sigma‐Aldrich) to obtain an active KLK1 stock at the same concentration of 100 μg mL^−1. […] All enzyme stocks were stored at −20 °C. H‐PFR‐AMC (KLK1), Boc‐VPR‐AMC (KLK5, KLK8, KLK13), Boc‐QAR‐AMC (KLK6, Plasmin), substrates were purchased from Bachem. […] Plasmin (Sigma‐Aldrich) was purchased in mature and active form.
(§2) Compounds were screened on KLKs using a BMG Fluostar microplate reader (black 96‐well microplates). Hit compounds were screened on the selected group of enzymes using optimized concentrations and buffers (KLK1 0.8 nM, KLK4 10 nM, KLK5 0.2 nM; KLK6 1.9 nM; KLK7 6 nM; KLK8 0.2 nM; KLK11 5.2 nM, KLK13 0.47 nM, KLK14 2.5 nM, plasmin 3.3 nM, thrombin 0.1 nM, tissue‐plasminogen activator (tPA) 0.1 nM, matriptase 1 nM, cathepsin L 2 nM) either in absence or prior preincubation in the presence of 100 μM of Fe^3+.
(§3) The proteases are first preincubated for 15 min with each compound (50 and 100 μM) or with DMSO (<2%, negative control) in a total volume of 85 μL of 50 mM Tris buffer, 1 M citrate, 0.05% Brij‐35, pH 7, 37 °C. The reaction is triggered by the appropriate substrate at the optimized concentration in 15 μL of 50 mM Tris buffer, 1 M citrate, 0.05% Brij‐35, pH 8 (H‐PFR‐AMC 100 μM; Boc‐VPR‐AMC 100 μM; Boc‐QAR‐AMC 100 μM; Meo‐Suc‐RPY‐AMC 150 μM, Z‐LR‐AMC 100 μM, Z‐GGR‐AMC 100 μM) and followed for 30 min at 37 °C. […] The release of the AMC fluorescent group is detected using the following wavelengths: λex = 360 nm and λem = 460 nm. The percent inhibition is calculated from Equation (1) where V 0 is the initial rate of the DMSO control, the initial rate in the presence of the inhibitor V i. (1) %inhibition=(1−(vi/v0))×100
(§4) The equation is entered in the Kaleidagraph 4.5 software for curve fitting f([I]) = % Inhibition, where [I] is the inhibitor concentration.
(§5) The mechanism of inhibition was determined by varying substrate and inhibitor concentrations, the type of inhibition and inhibition parameter (Ki or Ki′) are determined by Dixon's plots.

[1] = UV–vis spectroscopy of Fe3+ chelation and complex stability; assay type: physicochemical; conditions: activity buffer pH 7.4, 1:1 ratio, t = 0 to 240 min
Procedure: UV–vis analysis of DFX was first performed to monitor the chelation process and the stability of the Fe^3+ complex over time at a 1:1 ratio, typically representing the duration of inhibition assay (30 min to 4 h) (Figure S1, Supporting Information). In these conditions of pH (7.4) and ligand‐to‐iron ratio and according to Steinhauser et al. the main species in solution is assigned to [Fe(DFX)2]^3−.^[ [49] ^] Indeed, we aimed to explore not only the chelation properties but also the impact of the chelated species on enzyme inhibition.
2.c. Chelation properties, iron interactions, and selectivity profiles of selected compounds targeting KLK activity.
Figure S2: Stability of the chelated species as monitored by spectrophotometry. UV/VIS spectra of molecules alone using activity buffer at pH 7.4 (in orange at 500 µM) or in the presence of FeCl3 (ratio of 1:1) at different times (t = 0 in red, 30 min in black, 60 min in blue and 240 min in green). The purple trace corresponds to iron only at 500 µM All data are representative of 2 independent experiments performed in duplicate. […]

[2] = Calcein transchelation (calcein release) assay; assay type: physicochemical; conditions: calcein 100 nM, 4 h at room temperature; estimation, assay not fully quantitative; read-out: Apparent affinity (pseudo‐affinity constant Kd for Fe3+)
KLK1 = KLK1 (Homo sapiens, UniProt P06870); experiment: KLK1 fluorogenic enzyme inhibition assay (H-PFR-AMC)
Procedure: as §1, §2, §3, §4, §5

KLK6 = KLK6 (Homo sapiens, UniProt Q92876); experiment: KLK6 fluorogenic enzyme inhibition assay (Boc-QAR-AMC)
Procedure: as §1, §2, §3, §4, §5

[3] = IC50 KLK8, 15 min preincubation at 37 °C, NI = not a hit (not above 50% inhibition at 50 μM)
[4] = IC50 KLK1, 15 min preincubation at 37 °C, NI = not a hit (not above 50% inhibition at 50 μM)

Sequence of KLK1 (P06870 25-262): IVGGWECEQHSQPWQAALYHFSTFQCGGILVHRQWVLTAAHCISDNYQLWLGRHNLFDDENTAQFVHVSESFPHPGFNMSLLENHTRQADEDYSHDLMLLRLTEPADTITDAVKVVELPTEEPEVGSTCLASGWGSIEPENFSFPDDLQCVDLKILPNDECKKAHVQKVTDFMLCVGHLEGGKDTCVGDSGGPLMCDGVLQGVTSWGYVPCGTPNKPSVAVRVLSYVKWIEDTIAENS

In the case of N#Cc1ccc(-n2nc(-c3ccccc3O)nc2-c2ccccc2O)cc1 [3o], the IC50 (KLK8) is reported as > 50 µM.
With Oc1ccccc1-c1nc(-c2ccccc2O)n(-c2ccc(Br)cc2)n1 [3p] the IC50 (KLK8) was > 50 µM.
With COc1ccc(-n2nc(-c3ccccc3O)nc2-c2ccccc2O)cc1 [3q] the IC50 (KLK8; [3]) was > 50 µM.
With NS(=O)(=O)c1ccc(-n2nc(-c3ccccc3O)nc2-c2ccccc2O)cc1 [3s] the IC50 (KLK8) was > 50 µM.
In the case of O=S(=O)(O)c1ccc(-n2nc(-c3ccccc3O)nc2-c2ccccc2O)cc1 [3t], the “UV–vis spectrum in the presence of FeCl3 (iron complex formation)” value (“UV–vis spectrum in the presence of FeCl3” for short) [1] is reported as “appearance of an absorption band with a maximum at 468 nm”, the IC50 (KLK8) is reported as 29.5 ± 1.4 µM and the Kd [2] is reported as 0.165 ± 0.017 nM.
Work on NC(=O)c1ccc(-n2nc(-c3ccccc3O)nc2-c2ccccc2O)cc1 [3u] yielded an IC50 (KLK8) of 23.7 ± 2.3 µM and a Kd [2] of 0.093 ± 0.007 nM.
Molecule Oc1ccccc1-c1nc(-c2ccccc2O)n(-c2ccc(-c3nnn[nH]3)cc2)n1 [3v] has an IC50 (KLK8) of 44.1 ± 1.7 µM.
For [Cl][Fe]([Cl])[Cl] [Fe3+], the IC50 (KLK1; read-out: Pseudo-IC50 of Fe3+ on KLK1, Figure S4 A, curve fit y=(100*M0)/(M0+M2)) was 989 µM, the IC50 (KLK8; read-out: Pseudo-IC50 of Fe3+ on KLK8, Figure S4 C, curve fit y=(100*M0)/(M0+M2)) was 1120 µM and the IC50 (KLK6; read-out: Pseudo-IC50 of Fe3+ on KLK6, Figure S4 B, curve fit y=(100*M0)/(M0+M2)) was 1320 µM.
With O=C(O)c1ccc(-n2nc(-c3ccccc3)nc2-c2ccccc2O)cc1 [compound 9] the IC50 (KLK1; [4]) was > 50 µM, the “UV–vis spectrum in the presence of FeCl3” value [1] was “no changes in the absorption spectra” and the IC50 (KLK8) was 46.8 ± 0.2 µM. For the same molecule, the IC50 (KLK6) was > 50 µM.
For COc1ccc(-c2nc(-c3ccccc3O)n(-c3ccc(C(=O)O)cc3)n2)cc1 [compound 10], the IC50 (KLK1; [4]) was > 50 µM, the IC50 (KLK8) was 33.4 ± 1.1 µM and the IC50 (KLK6) was > 50 µM.
In the case of COc1ccc(-c2nc(-c3ccccc3O)nn2-c2ccc(C(=O)O)cc2)c(O)c1 [compound 13], the IC50 (KLK1; [4]) is reported as > 50 µM, the “UV–vis spectrum in the presence of FeCl3” value [1] is reported as “a similar absorption band is observed” and the IC50 (KLK8) is reported as 24.8 ± 1.3 µM. For the same molecule, the Kd [2] was 0.077 ± 0.019 nM and the IC50 (KLK6) was > 50 µM.
With O=C(O)c1ccc(-n2nc(-c3ccccc3O)nc2-c2ccc(O)cc2O)cc1 [compound 14] the IC50 (KLK1; [4]) was > 50 µM, the IC50 (KLK8) was 38.3 ± 3.5 µM and the IC50 (KLK6) was > 50 µM.
For COc1ccc(-c2nc(-c3cccnc3O)n(-c3ccc(C(=O)O)cc3)n2)cc1 [compound 19], the IC50 (KLK1; read-out: IC50 KLK1, 15 min preincubation at 37 °C, NI = not a hit (not above 50% inhibition at 50 μM)) was > 50 µM.
For COc1ccccc1-c1nc(-c2ccccc2OC)n(-c2ccc(C(=O)O)cc2)n1 [compound 21], the IC50 (KLK1; [4]) was > 50 µM, the IC50 (KLK8) was > 50 µM and the IC50 (KLK6) was > 50 µM.
In the case of Oc1ccccc1-c1noc(-c2ccccc2O)n1 [compound 23], the IC50 (KLK8; [3]) is reported as > 50 µM.
